From PubChem BioAssay (NCI)
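Assay format: 96-well plates, 48-hour exposure. TGI denotes the concentration required for complete inhibition of growth.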 Where a SMILES comes first, the peptide text is derived from it. The star is where a group is joined. Boc = CC(C)(C)OC(=O)*; OSu = O=C1CCC(=O)N1O*

Tests used:
Assay in all cases: NCI tumour cell line growth inhibition, 48 h
A549 NSCLC = system: A549 NSCLC
EKVX NSCLC = system: EKVX NSCLC
HCT-116 colon = system: HCT-116 colon
K-562 leukemia = system: K-562 leukemia
M14 melanoma = system: M14 melanoma
MOLT-4 leukemia = system: MOLT-4 leukemia
SF-295 CNS = system: SF-295 CNS
SF-539 CNS = system: SF-539 CNS
TK-10 renal = system: TK-10 renal
UACC-257 melanoma = system: UACC-257 melanoma

SMILES | TGI (A549 NSCLC) [µM] | TGI (EKVX NSCLC) [µM] | TGI (HCT-116 colon) [µM] | TGI (K-562 leukemia) [µM] | TGI (M14 melanoma) [µM] | TGI (MOLT-4 leukemia) [µM] | TGI (SF-295 CNS) [µM] | TGI (SF-539 CNS) [µM] | TGI (TK-10 renal) [µM] | TGI (UACC-257 melanoma) [µM]
C[N+](C)(C)CC(=O)N/N=c1\cc(C(=O)Nc2ccc(N=O)cc2C#N)oc2cc(O)ccc12 | > 100 | > 100 | > 100 | > 100 | > 100 | > 100 | > 100 | > 100 | > 100 | > 100
Nc1ccccc1Nc1ccccc1C(=O)[O-].Nc1ccccc1Nc1ccccc1C(=O)[O-].[Cu+2] | > 100 | > 100 | > 100 | > 100 | > 100 | > 100 | > 100 | > 100 | > 100 | > 100
COC(=O)c1cc(CC(C)C)c2c(c1)[nH]c1ccccc12 | > 100 | > 100 | > 100 | > 100 | > 100 | > 100 | > 100 | > 100 | > 100 | –
COC1O[C@H]2CCN(C(=O)OCc3ccccc3)[C@H]2[C@H]1OCc1ccccc1 (stereo not given in full) | > 100 | > 100 | > 100 | > 100 | > 100 | > 100 | > 100 | > 100 | > 100 | > 100
CC(C)(C)OC(=O)NC(Cc1ccc(O)cc1)C(=O)NC(CCCCN)C(=O)NC(Cc1ccc(O)cc1)C(=O)NC(CCCCN)C(=O)ON1C(=O)CCC1=O (stereo not given) (Boc-YKYK-OSu; configuration not given here) | > 100 | > 100 | > 100 | > 100 | > 100 | > 100 | – | – | > 100 | > 100
Cc1cc(=O)cc2sc3c(C)cccc3nc1-2 | > 100 | – | 60.5 | 91.2 | 52 | 93.3 | > 100 | 73.3 | 77.4 | > 100
COc1ccc2nc(-c3ccc(OCc4ccccc4)cc3)ccc2c1 | > 100 | > 100 | > 100 | > 100 | > 100 | > 100 | > 100 | > 100 | > 100 | > 100
O=C1CCCN(c2ccccc2)N1 | > 100 | > 100 | > 100 | > 100 | > 100 | > 100 | > 100 | > 100 | – | > 100
